Test results published in patent publication EP4644396A1 (Visionpharma (Nantong) Co., Ltd, priority 2022, dated 2024).

Key:
[1] = biological target: T1, human TLR7 (Homo sapiens, UniProt Q9NYK1); assay: HEK-Blue hTLR7 SEAP reporter gene inhibition assay; format: cell-based; conditions: hTLR7 HEK-Blue cells, TLR7 ligand Gardiquimod 10 µM, 20 hours, SEAP by Quanti-blue; class symbols; read-out: HEK-Blue hTLR7 IC50
T1 sequence (Q9NYK1 27-1049): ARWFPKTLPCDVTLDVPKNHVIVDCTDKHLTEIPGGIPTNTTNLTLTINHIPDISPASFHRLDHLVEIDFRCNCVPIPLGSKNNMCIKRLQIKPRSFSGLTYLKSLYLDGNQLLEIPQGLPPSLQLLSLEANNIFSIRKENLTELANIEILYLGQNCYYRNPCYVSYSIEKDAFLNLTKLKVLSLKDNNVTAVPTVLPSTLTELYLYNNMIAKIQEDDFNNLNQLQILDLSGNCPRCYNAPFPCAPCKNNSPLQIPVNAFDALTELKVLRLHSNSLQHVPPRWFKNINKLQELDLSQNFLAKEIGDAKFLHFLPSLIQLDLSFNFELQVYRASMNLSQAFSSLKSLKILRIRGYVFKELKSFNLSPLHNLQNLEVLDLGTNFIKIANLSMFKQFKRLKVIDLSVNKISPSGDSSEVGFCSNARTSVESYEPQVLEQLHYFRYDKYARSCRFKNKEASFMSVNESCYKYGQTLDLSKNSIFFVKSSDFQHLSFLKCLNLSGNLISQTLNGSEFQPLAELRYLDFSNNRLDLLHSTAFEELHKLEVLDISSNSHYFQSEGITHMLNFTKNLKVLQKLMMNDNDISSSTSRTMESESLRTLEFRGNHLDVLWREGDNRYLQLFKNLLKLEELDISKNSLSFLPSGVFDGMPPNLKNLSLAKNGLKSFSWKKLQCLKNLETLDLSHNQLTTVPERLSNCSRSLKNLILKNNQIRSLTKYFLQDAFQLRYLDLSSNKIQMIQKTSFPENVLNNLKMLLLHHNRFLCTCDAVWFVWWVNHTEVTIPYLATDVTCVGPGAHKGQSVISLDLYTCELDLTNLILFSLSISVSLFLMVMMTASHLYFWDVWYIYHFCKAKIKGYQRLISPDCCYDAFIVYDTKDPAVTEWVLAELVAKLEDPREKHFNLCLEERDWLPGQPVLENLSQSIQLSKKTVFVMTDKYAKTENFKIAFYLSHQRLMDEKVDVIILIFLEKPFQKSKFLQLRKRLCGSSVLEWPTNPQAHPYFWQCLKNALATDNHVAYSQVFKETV
Method: (§1) HEK-Blue cells with stable expression of human TLR7 or TLR8 were used in the evaluation of inhibitory activity of compounds in the present invention against TLR7 or TLR8, by using its ability to induce the SEAP reporting gene under the control of the fusion of IFN-β minimum promoters into five NF-κB and ap-1 binding sites, as follows: hTLR7 HEK-Blue cells (Invivogen, 80, 000 cells per well) or hTLR8 HEK-Blue cells (60, 000 cells per well) were added to a 96-well cell culture plate. A solution of the testing compounds were added to each well, with the final concentration of tested compounds in the medium ranged from 0.001 to 36 µM and the culture was incubated for 15 minutes. M5049 was used as positive controls in the testing.
(§2) Then a TLR7 ligand (Gardiquimod, purchased from MedChemExpress, with final concentration of ligand in cell culture medium kept at 10 µM) or a TLR8 ligand (purchased from MedChemExpress with final concentration in cell culture media at 10 µM) and the culture was incubated for 20 hours. According to the manufacturer's instructions, a HEK-Blue reagent Quanti-blue (Invivogen) was used to detect the SEAP levels in cell cultures. The half […] concentration or IC50 was calculated by using GraphPad Prism. […] Table 1: Activities of examples in this invention to hTLR7/8 in HEK-Blue Cells

[2] = biological target: T2, human TLR8 (Homo sapiens, UniProt Q9NR97); assay: HEK-Blue hTLR8 SEAP reporter gene inhibition assay; format: cell-based; conditions: hTLR8 HEK-Blue cells, TLR8 ligand 10 µM, 20 hours, SEAP by Quanti-blue; class symbols; read-out: HEK-Blue hTLR8 IC50
T2 construct: expressed in transfected cells
T2 sequence (Q9NR97 27-1041): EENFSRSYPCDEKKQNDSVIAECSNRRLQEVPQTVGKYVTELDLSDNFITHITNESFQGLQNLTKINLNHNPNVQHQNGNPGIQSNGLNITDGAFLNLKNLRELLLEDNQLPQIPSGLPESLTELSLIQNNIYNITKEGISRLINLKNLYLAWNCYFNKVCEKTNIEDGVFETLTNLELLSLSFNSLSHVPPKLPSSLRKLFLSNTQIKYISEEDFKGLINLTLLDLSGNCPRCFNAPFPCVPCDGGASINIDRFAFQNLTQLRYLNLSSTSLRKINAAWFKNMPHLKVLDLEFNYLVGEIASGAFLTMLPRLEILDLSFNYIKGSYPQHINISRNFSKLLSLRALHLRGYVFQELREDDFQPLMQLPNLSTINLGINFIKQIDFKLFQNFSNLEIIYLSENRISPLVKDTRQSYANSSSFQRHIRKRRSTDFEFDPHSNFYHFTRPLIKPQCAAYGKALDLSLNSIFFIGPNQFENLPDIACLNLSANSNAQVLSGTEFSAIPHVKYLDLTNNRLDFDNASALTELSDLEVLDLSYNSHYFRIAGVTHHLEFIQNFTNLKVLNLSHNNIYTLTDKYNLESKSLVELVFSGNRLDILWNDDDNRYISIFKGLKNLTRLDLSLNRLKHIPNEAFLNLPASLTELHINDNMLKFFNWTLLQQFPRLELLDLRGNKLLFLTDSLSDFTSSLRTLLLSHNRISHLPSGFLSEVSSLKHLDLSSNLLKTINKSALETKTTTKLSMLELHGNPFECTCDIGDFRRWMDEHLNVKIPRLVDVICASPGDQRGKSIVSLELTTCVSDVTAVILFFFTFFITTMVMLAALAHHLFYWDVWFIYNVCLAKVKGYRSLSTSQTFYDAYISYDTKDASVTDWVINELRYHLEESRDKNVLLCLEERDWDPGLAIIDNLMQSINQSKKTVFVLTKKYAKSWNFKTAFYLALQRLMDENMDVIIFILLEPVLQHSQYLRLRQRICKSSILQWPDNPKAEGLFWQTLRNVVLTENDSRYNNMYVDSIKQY
Method: as §1, §2

Row | IC50 [1] [nM] | IC50 [2] [nM] | Compound
1 | < 50 | < 100 | CC1Cc2nn3c(c2CN1)CN(c1ccc(C#N)n2ncc(F)c12)C[C@H]3C (single isomer, unassigned) [Example I-11a]
2 | < 50 | < 100 | CC1Cc2nn3c(c2CN1)CN(c1ccc(C#N)n2ncc(F)c12)C[C@H]3C (single isomer, unassigned) [Example I-11b]
3 | < 50 | < 100 | C[C@@H]1CN(c2ccc(C#N)n3ncc(F)c23)Cc2c3c(nn21)CC(N)CC3 (single isomer, unassigned) [Example I-20a]
4 | < 50 | < 100 | C[C@@H]1CN(c2ccc(C#N)n3ncc(F)c23)Cc2c3c(nn21)CC(N)CC3 (single isomer, unassigned) [Example I-20b]
5 | < 50 | < 100 | CC1Cc2c(nn3c2CN(c2ccc(C#N)n4ncc(F)c24)C[C@H]3C)C(C)N1 (single isomer, unassigned) [Example I-59b]
6 | < 50 | < 100 | C[C@@H]1CN(c2ccc(C#N)n3ncc(F)c23)Cc2c3c(nn21)CC(C)(N)CC3 (single isomer, unassigned) [Example I-71a]
7 | > 50 | < 100 | C[C@@H]1CN(c2ccc(C#N)n3ncc(F)c23)Cc2c3c(nn21)CC(C)(N)CC3 (single isomer, unassigned) [Example I-71b]
8 | > 50 | > 100 | C[C@@H]1CN(c2ccc(C#N)n3ncc(F)c23)Cc2c3c(nn21)CCC(C)(N)C3 (single isomer, unassigned) [Example I-80a]
9 | > 50 | > 100 | C[C@@H]1CN(c2ccc(C#N)n3ncc(F)c23)Cc2c3c(nn21)CCC(C)(N)C3 (single isomer, unassigned) [Example I-80b]
10 | < 50 | < 100 | CC1Cc2c(nn3c2CN(c2ccc(C#N)n4ncc(F)c24)C[C@H]3C)C(C)N1 (single isomer, unassigned) [Example I-88a]
11 | < 50 | > 100 | CC1Cc2c(nn3c2CN(c2ccc(C#N)n4ncc(F)c24)C[C@H]3C)C(C)N1 (single isomer, unassigned) [Example I-88b]
12 | < 50 | < 100 | C[C@@H]1CN(c2ccc(C#N)n3ncc(F)c23)Cc2c3c(nn21)CCNC3 [Example I-2, (R)-3-fluoro-4-(7-methyl-1,3,4,7,8,10-hexahydropyrido[4',3':3,4]pyrazolo[1,5-a]pyrazin-9(2H)-yl)pyrazolo[1,5-a]pyridine-7-carbonitrile]
13 | < 50 | < 100 | C[C@@H]1CN(c2ccc(C#N)n3ncc(F)c23)Cc2c3c(nn21)CNCC3 [Example I-5, (R)-3-fluoro-4-(4-methyl-3,4,7,8,9,10-hexahydropyrido[3',4':3,4]pyrazolo[1,5-a]pyrazin-2(1H)-yl)pyrazolo[1,5-a]pyridine-7-carbonitrile]
14 | < 50 | < 100 | CC1Cc2nn3c(c2CN1)CN(c1ccc(C#N)n2ncc(F)c12)C[C@H]3C (stereo partly drawn) [Example I-11, 4-((7R)-3,7-dimethyl-1,3,4,7,8,10-hexahydropyrido[4',3':3,4]pyrazolo[1,5-a]pyrazin-9(2H)-yl)-3-fluoropyrazolo[1,5-a]pyridine-7-carbonitrile]
15 | < 50 | < 100 | CC1CNCc2c1nn1c2CN(c2ccc(C#N)n3ncc(F)c23)C[C@H]1C (stereo partly drawn) [Example I-12, 4-((7R)-4,7-dimethyl-1,3,4,7,8,10-hexahydropyrido[4',3':3,4]pyrazolo[1,5-a]pyrazin-9(2H)-yl)-3-fluoropyrazolo[1,5-a]pyridine-7-carbonitrile]
16 | < 50 | < 100 | C[C@@H]1CN(c2ccc(C#N)n3ncc(F)c23)Cc2c3c(nn21)[C@@H](C)NCC3 [Example I-21, 4-((4R,7R)-4,7-dimethyl-3,4,7,8,9,10-hexahydropyrido[3',4':3,4]pyrazolo[1,5-a]pyrazin-2(1H)-yl)-3-fluoropyrazolo[1,5-a]pyridine-7-carbonitrile]
17 | > 50 | < 100 | C[C@@H]1CN(c2ccc(C#N)n3ncc(F)c23)Cc2c3c(nn21)CC(N(C)C)CC3 (stereo partly drawn) [Example I-27, 4-((4R)-8-(dimethylamino)-4-methyl-3,4,7,8,9,10-hexahydropyrazino[1,2-b]indazol-2(1H)-yl)-3-fluoropyrazolo[1,5-a]pyridine-7-carbonitrile]

Row | Compound | IC50 [1] [nM] | IC50 [2] [nM]
18 | 3-Fluoro-4-((4R,9S)-8-(2-((R)-3-fluoropyrrolidin-1-yl)-2-oxoethyl)-4,9-dimethyl-3,4,7,8,9,10-hexahydropyrido[3',4':3,4]pyrazolo[1,5-a]pyrazin-2(1H)-yl)pyrazolo[1,5-a]pyridine-7-carbonitrile [Example I-149] | < 50 | > 100
19 | 3-Fluoro-4-((4R,9S)-8-(2-((S)-3-fluoropyrrolidin-1-yl)-2-oxoethyl)-4,9-dimethyl-3,4,7,8,9,10-hexahydropyrido[3',4':3,4]pyrazolo[1,5-a]pyrazin-2(1H)-yl)pyrazolo[1,5-a]pyridine-7-carbonitrile [Example I-153] | < 50 | > 100
20 | 4-((4R,9S)-4,9-dimethyl-8-(2-(4-methylpiperazin-1-yl)-2-oxoethyl)-3,4,7,8,9,10-hexahydropyrido[3',4':3,4]pyrazolo[1,5-a]pyrazin-2(1H)-yl)-3-fluoropyrazolo[1,5-a]pyridine-7-carbonitrile [Example I-128] | < 50 | < 100
21 | 4-((4R,9S)-8-(D-prolyl)-4,9-dimethyl-3,4,7,8,9,10-hexahydropyrido [3',4':3,4] pyrazolo [1,5-a]pyrazin-2(1H)-yl)-3-fluoropyrazolo[1,5-a]pyridine-7-carbonitrile [Example I-120] | > 50 | < 100
22 | 4-((4R,9S)-8-(cyanomethyl)-4,9-dimethyl-3,4,7,8,9,10-hexahydropyrido[3',4':3,4] pyrazolo[1,5-a]pyrazin-2(1H)-yl)-3-fluoropyrazolo[1,5-a]pyridine-7-carbonitrile [Example I-124] | < 50 | < 100
